# According to patent US10221129B2, “Inhibitors of human immunodeficiency virus replication” (ViiV HEALTHCARE UK (NO.5) LIMITED, priority 2015, dated 2019):
# Where two headings read alike, the source gives them in different places.
# How the values were obtained:
# [1] = Compound cytotoxicity, XTT-based colorimetric assay; type: cell-based; conditions: human, uninfected MT2 cells, day 4, XTT
# Protocol: Compound cytotoxicity and the corresponding CC50 values were determined using the same protocol as described in the antiviral assay except that uninfected cells were used. Cytotoxicity was assessed on day 4 in uninfected MT2 cells by using a XTT (2,3-bis[2-Methoxy-4-nitro-5-sulfophenyl]-2H-tetrazolium-5-carboxyanilide inner salt)-based colorimetric assay (Sigma-Aldrich, St Louis, Mo.).
# [2] = system: recombinant NL4-3 virus (nef section replaced with Renilla luciferase gene) in MT-2 cells; assay: HIV cell culture assay (antiviral activity, luciferase readout); type: cell-based
# Protocol: HIV cell culture assay—MT-2 cells, 293T cells and the proviral DNA clone of NL4-3 virus were obtained from the NIH AIDS Research and Reference Reagent Program. MT-2 cells were propagated in RPMI 1640 media supplemented with 10% heat inactivated fetal bovine serum (FBS), 100 jag/ml penicillin G and up to 100 units/mL streptomycin. The 293T cells were propagated in DMEM media supplemented with 10% heat inactivated FBS, 100 μg/mL penicillin G and 100 μg/mL streptomycin. A recombinant NL4-3 proviral clone, in which a section of the nef gene was replaced with the Renilla luciferase gene, was used to make the reference virus used in these studies. The recombinant virus was prepared through transfection of the recombinant NL4-3 proviral clone into 293T cells using Transit-293 Transfection Reagent from Mirus Bio LLC (Madison, Wis.). Supernatant was harvested after 2-3 days and the amount of virus present was titered in MT-2 cells using luciferase enzyme activity as a marker by measuring luciferase enzyme activity. Luciferase was quantitated using the EnduRen Live Cell Substrate from Promega (Madison, Wis.). Antiviral activities of compounds toward the recombinant virus were quantified by measuring luciferase activity in MT-2 cells infected for 4-5 days with the recombinant virus in the presence of serial dilutions of the compound.
# (Johnson V A, Byington R T. Infectivity Assay. In Techniques in HIV Research. ed. Aldovini A, Walker B D. 71-76. New York: Stockton Press. 1990).
# [3] = Renilla, NL43, MT-2 cells infected for 4-5 days with recombinant NL4-3 Renilla luciferase virus
compound,measurement,setting,value
CCN(c1ccccc1)S(=O)(=O)NC(=O)N[C@@H](Cc1ccccc1)C(=O)N(C)c1ccc(OC)cc1 [CA-23],CC50 at 4 days,[1],> 100 µM
same,EC50,[2]; [3],60 nM
COc1ccc(N(C)C(=O)[C@H](Cc2ccccc2)NC(=O)NS(=O)(=O)n2ccc3c(F)c(F)c(F)c(F)c32)cc1 [JB-78],CC50 at 4 days,[1],> 33.3 µM
same,EC50,[2]; [3],370 nM
COc1ccc(N(C)C(=O)[C@H](Cc2ccccc2)NC(=O)NS(=O)(=O)Nc2ccc(C)c(C)c2)cc1 [CA-13],CC50 at 4 days,[1],> 100 µM
same,EC50,[2]; [3],60 nM
CN(C(=O)[C@H](Cc1cc(F)cc(F)c1)NC(=O)NS(=O)(=O)N1CCc2cccnc21)c1ccc(C(F)F)nc1 [GW-12],CC50 at 4 days,[1],> 100 µM
same,EC50,[2]; [3],120 nM
COc1cncc(N(C)C(=O)[C@H](Cc2cc(F)cc(F)c2)NC(=O)NS(=O)(=O)N2CCc3cccnc32)c1 [BB-19],CC50 at 4 days,[1],> 100 µM
same,EC50,[2]; [3],3270 nM
CN(C(=O)[C@H](Cc1cc(F)cc(F)c1)NC(=O)NS(=O)(=O)Nc1cccc(Cl)c1)c1ccc2scnc2c1 [CA-116],CC50 at 4 days,[1],73.2 µM
same,EC50,[2]; [3],60 nM
CC(C)c1ccc(N(C)C(=O)[C@H](Cc2cc(F)cc(F)c2)NC(=O)NS(=O)(=O)N2CCc3cccnc32)cn1 [BB-18],CC50 at 4 days,[1],> 100 µM
same,EC50,[2]; [3],10 nM
COc1ccc(N(C)C(=O)[C@H](Cc2ccccc2)NC(=O)NS(=O)(=O)N(C)c2cccc(Cl)c2)cc1 [JB-37],CC50 at 4 days,[1],> 100 µM
same,EC50,[2]; [3],60 nM
COc1ccc(N(C)C(=O)[C@H](Cc2ccccc2)NC(=O)NS(=O)(=O)Nc2cccc(C#N)c2)cc1 [CA-9],CC50 at 4 days,[1],> 100 µM
same,EC50,[2]; [3],260 nM
CCN(CC)S(=O)(=O)NC(=O)N[C@@H](Cc1cc(F)cc(F)c1)C(=O)N(C)c1ccc(OC(F)F)cc1 [BB-36],CC50 at 4 days,[1],> 100 µM
same,EC50,[2]; [3],160 nM
CCN(c1ccccc1)S(=O)(=O)NC(=O)N[C@@H](Cc1cc(F)cc(F)c1)C(=O)N(C)c1ccc2scnc2c1 [ZY-9],CC50 at 4 days,[1],> 100 µM
same,EC50,[2]; [3],180 nM
COc1ccc(N(C)C(=O)[C@H](Cc2ccccc2)NC(=O)NS(=O)(=O)NCc2cccc(-n3cccn3)c2)cc1 [JB-47],CC50 at 4 days,[1],> 100 µM
same,EC50,[2]; [3],3410 nM
COc1ccc(N(C)C(=O)[C@H](Cc2ccccc2)NC(=O)NS(=O)(=O)Nc2ccccc2C#N)cc1 [CA-6],CC50 at 4 days,[1],> 100 µM
same,EC50,[2]; [3],380 nM
COc1ccc(N(C)C(=O)[C@H](Cc2ccccc2)NC(=O)NS(=O)(=O)Nc2ncccn2)cc1 [JB-29],CC50 at 4 days,[1],> 100 µM
same,EC50,[2]; [3],1600 nM
COc1ccc(N(C)C(=O)[C@H](Cc2ccccc2)NC(=O)NS(=O)(=O)Nc2ccc(Cl)c(Cl)c2)cc1 [CA-12],CC50 at 4 days,[1],> 33.3 µM
same,EC50,[2]; [3],90 nM
CN(C(=O)[C@H](Cc1cc(F)cc(F)c1)NC(=O)NS(=O)(=O)N1CCc2ccccc2C1)c1ccc2scnc2c1 [CA-157],CC50 at 4 days,[1],99.7 µM
same,EC50,[2]; [3],880 nM
COc1ccc(N(C)C(=O)[C@H](Cc2ccccc2)NC(=O)NS(=O)(=O)Nc2ccccc2C(F)(F)F)cc1 [CA-60],CC50 at 4 days,[1],> 100 µM
same,EC50,[2]; [3],870 nM
CN(C(=O)[C@H](Cc1cc(F)cc(F)c1)NC(=O)NS(=O)(=O)n1ncc2c(Cl)cccc21)c1ccc2scnc2c1 [ZY-19],CC50 at 4 days,[1],> 33.3 µM
same,EC50,[2]; [3],360 nM
COc1ccc(N(C)C(=O)[C@H](Cc2ccccc2)NC(=O)NS(=O)(=O)Nc2ccccc2C)cc1 [JB-17],CC50 at 4 days,[1],> 100 µM
same,EC50,[2]; [3],80 nM
COc1ccc(N(C)C(=O)[C@H](Cc2ccccc2)NC(=O)NS(=O)(=O)N2CCc3cccnc32)cc1 [JB-31],CC50 at 4 days,[1],> 100 µM
same,EC50,[2]; [3],140 nM
COc1ccc(N(C)C(=O)[C@H](Cc2ccccc2)NC(=O)NS(=O)(=O)Nc2cccc(-c3ccccc3)c2)cc1 [CA-37],CC50 at 4 days,[1],> 33.3 µM
same,EC50,[2]; [3],1200 nM
COc1ccc(N(C)C(=O)[C@H](Cc2ccccc2)NC(=O)NS(=O)(=O)Nc2ccccc2Oc2ccccc2)cc1 [CA-33],CC50 at 4 days,[1],> 33.3 µM
same,EC50,[2]; [3],2040 nM
"CC1CN(S(=O)(=O)NC(=O)N[C@@H](Cc2cc(F)cc(F)c2)C(=O)N(C)c2ccc3scnc3c2)c2ncccc21 (single isomer, unassigned) [VN-14]",CC50 at 4 days,[1],> 100 µM
COc1ccc(N(C)C(=O)[C@H](Cc2ccccc2)NC(=O)NS(=O)(=O)NCc2n[nH]c3ccccc23)cc1 [JB-67],EC50,"[2]; MT-2 cells infected for 4-5 days with recombinant NL4-3 Renilla luciferase virus, read-out: EC50",180 nM
